According to publication PMC9714921 (PLOS Pathogens, 2022):
Where “and” joins values, the source holds several entries; their conditions need not be identical. Equal values may be shown once. Entries after “also recorded” stand apart in the source; their conditions may differ. Read-outs that look alike come from different tables or passages of the source.

Test system: Bma-ACR-16
Assay type: cell-based, Brugia malayi
Experimental: cRNA for oocyte injection was prepared with the mMESSAGE mMACHINE T7 kit following manufacturers protocol (Ambion, USA). Concentration was determined using a Nanodrop spectrophotometer. Desired subunit combinations with associated accessory proteins were mixed and diluted with nuclease-free water to a final concentration of 250 ng/uL for each construct.
Adult female X. laevis oocyte extraction was performed in accordance with the McGill University Animal Use Protocol 2015–7758 following standard protocol. Briefly, frog ovary lobes were placed in a Ca^2+-free OR2 solution (82 mM NaCl, 2 mM KCl, 1 mM MgCl2, 5 mM HEPES buffer, pH 7.3) and manually divided into clusters of <10 oocytes with thin tweezers followed by a 90-minute incubation in 10 mg/mL collagenase type II (Sigma-Aldrich, USA). Oocytes were washed in Ca^2+-free OR2 and placed ND96 solution (NaCl 96 mM, KCl 2 mM, CaCl2 1.8 mM, MgCl2 1 mM and HEPES 5 mM, pH 7.3) supplemented with sodium pyruvate 2.5 mM [86] and incubated at 18°C until cRNA injection. Oocytes were injected with 50 nL (12.5 ng of each injected gene) of the desired cRNA subunit and accessory protein combination mix with the NanojectII (Drummond Scientific, USA). Following injection, oocytes were incubated in ND96 buffer at 18°C until electrophysiology. All electrophysiology was conducted two days post-injection, except for the expression analysis assay in which oocytes were measured every day after injection for three consecutive days.
All drugs were dissolved in recording solution (NaCl 100 mM, KCl 2.5 mM, CaCl2 1 mM, HEPES 5 mM, pH 7.3) to a stock concentration of 10 mM and diluted to their final recording concentrations. Oxantel and bephenium were first dissolved in DMSO to ensure a final recording concentration contained less than 0.1% DMSO. For agonist profiling, all drugs were diluted to a concentration of 100 μM.
Oocytes were placed individually in an RC3Z chamber (Harvard Apparatus, USA) submerged in recording solution (NaCl 100 mM, KCl 2.5 mM, CaCl2 1 mM, HEPES 5 mM, pH 7.3). The RC3Z chamber was connected to a perfusion system containing recording solution and ligand solutions. Pulled glass capillaries (World Precision Instruments, USA) were filled with 3M KCl and the tips clipped and checked for appropriate resistance (between 0.5 and 5 MΩ). A 3M KCl agar bridge grounded the oocyte bath chamber. Measurements were made using an Axon Axoclamp 900A amplifier with Digidata1550M. […] Ligand solutions were applied to the oocytes with an approximate flow rate of 1.2 m/s and current responses measured. Oocytes were exposed to the ligand solution until a distinct current peak was observed followed by a wash with the recording solution until current returned to baseline for a minimum of 10 seconds until the next ligand exposure. For BAPTA-AM exposed oocytes, oocytes were incubated in 100 μM BAPTA-AM for four hours prior to electrophysiology recording. Data was analyzed using Clampex 9.2 (Axon Instruments, USA) and statistical analysis and graphs produced in Prism (GraphPad version 9.1). T-tests were used to compare responses with error bars representing standard error. For concentration-response curves, individual oocyte current response to the different ligand concentrations were normalized to the response obtained with 300 μM. Data was fit using the Graphpad “log(agonist) vs normalized response–variable slope” equation, with 95% confidence intervals being reported. […] For examples of oocyte responses, recordings were filtered in Clampfit using the lowband pass at 40 Hz cutoff.

`CC(=O)OCC[N+](C)(C)C` [ACh, acetylcholine] was tested, and the “current response to 100 μM acetylcholine” value (No accessory protein) was 0 ± 0 (n=12) nA, the “current response to 100 μM acetylcholine” value (co-injected: Bma-ric-3 (reference condition)) was “no responses and 0 ± 0 (n=8) nA” and the “current response to 100 μM acetylcholine” value (co-injected: Bma-ric-3 + Bma-eat-18) was 0± 0 (n=10) nA. For the same molecule, the “current response to 100 μM acetylcholine” value (co-injected: Bma-ric-3 + Bma-emc-6 + Cel-nra-2 + Cel-nra-4) was 11 ± 9 nA, the “current response to 100 μM acetylcholine” value (co-injected: Bma-ric-3 + Bma-emc-6 + Cel-nra-2 + Cel-nra-4 + Bma-eat-18) was 2 ± 1 nA and the “current response to 100 μM acetylcholine” value (co-injected: Bma-ric-3 + Bma-emc-6 + Cel-nra-2 + Cel-nra-4 + Bma-eat-18 + Bma-unc-50 + Bma-unc-74) was 0 ± 0 nA. For the same molecule, the “current response to 100 μM acetylcholine” value (co-injected: Bma-ric-3 + Bma-emc-6 + Cel-nra-2 + Cel-nra-4 + Bma-eat-18 + Bma-unc-50 + Bma-unc-74, listed as acetylcholine) was 0 ± 0 (n=11) nA, the “current response to 100 μM acetylcholine” value (co-injected: Bma-ric-3 + Bma-emc-6 + Cel-nra-2 + Cel-nra-4 + Bma-eat-18, listed as acetylcholine) was 2 ± 1 (n=12) ns nA and the “current response to 100 μM acetylcholine” value (co-injected: Bma-ric-3 + Bma-emc-6 + Cel-nra-2 + Cel-nra-4, listed as acetylcholine) was 11 ± 9 (n=11) ns nA. For the same molecule, the “current response to 100 μM acetylcholine” value (co-injected: Bma-ric-3 + Bma-molo-1) was 0 ± 0 (n=16) nA, the “current response to 100 μM acetylcholine” value (co-injected: Bma-ric-3 + Bma-unc-50 + Bma-unc-74) was 0 ± 0 (n=5) nA and the “current response to 100 μM acetylcholine” value (co-injected: Bma-ric-3 + Bma-unc-50 + Bma-unc-74 + Bma-eat-18) was 0 ± 0 (n=13) nA. For the same molecule, the “current response to 100 μM acetylcholine” value (co-injected: Bma-ric-3 + Cel-emc-6) was 17 ± 4 nA and 17 ± 4 (n=13) nA, the “current response to 100 μM acetylcholine” value (co-injected: Bma-ric-3 + Cel-nra-2) was 33 ± 9 nA and the “current response to 100 μM acetylcholine” value (co-injected: Bma-ric-3 + Cel-nra-2 + Cel-nra-4, listed as acetylcholine) was 4 ± 2 nA and 4 ± 2 (n=12) nA. For the same molecule, the “current response to 100 μM acetylcholine” value (co-injected: Bma-ric-3 + Cel-nra-2, listed as acetylcholine) was 33 ± 9 (n=14) nA, the “current response to 100 μM acetylcholine” value (co-injected: Bma-ric-3 + Cel-nra-4) was 31 ±13 nA and the “current response to 100 μM acetylcholine” value (co-injected: Bma-ric-3 + Cel-nra-4, listed as acetylcholine) was 31 ± 13 (n=12) ns nA. For the same molecule, the “current response to 100 μM acetylcholine” value (co-injected: Hco-ric-3) was “no measurable current; also recorded: no responses” and the “current response to 100 μM acetylcholine” value (co-injected: Hco-ric-3, listed as acetylcholine) was 0 ± 0 nA and 0 ± 0 (n=12) nA.
